Test results: PMC12040169 (PLOS Biology, 2025)

Experiment: in vitro
Conditions: human, hela cells, % viability

SMILES | viability at 28.5 h, 10 µM
CC(C)c1nsc(NS(=O)(=O)c2cccc(C(F)(F)F)c2)n1 [CBK038881] | 98.3%
O=C(O)c1cccc(NS(=O)(=O)Cc2ccccc2)c1 [CBK038894] | 96.4%
O=C(O)c1cccc(NS(=O)(=O)Cc2ccccc2[N+](=O)[O-])c1 [CBK038906] | 97.8%
COc1ccc(/C=C(\C)C(=O)NCc2ccc(OC3CCNCC3)cc2)cc1OC [CBK038914T] | 90.9%
Cc1oc(-c2ccccc2)cc1C(=O)NCc1ccc(OC2CCNCC2)cc1 [CBK038915T] | 108%
O=C(/C=C/c1cccnc1)Nc1cncc(OC2CCNCC2)n1 [CBK038919T] | 96.9%
CC1(C)CC(=O)C=C(C(=O)Nc2cncc(OC3CCNCC3)n2)O1 [CBK038922T] | 103%
CC1(C)CC(=O)C=C(C(=O)Nc2ccccc2N2CCCNCC2)O1 [CBK038935T] | 112%
Cc1oc(-c2ccccc2)cc1C(=O)Nc1cc2ccccc2c(N2CCNCC2)n1 [CBK038938T] | 104%
O=C(NCc1ccc(OC2CCNCC2)cc1)c1coc2c1C(=O)CCC2 [CBK038944T] | 101%
O=C(/C=C/c1cccnc1)NCc1ccc(OC2CCNCC2)cc1 [CBK038945T] | 88.7%
CC1(C)CC(=O)C=C(C(=O)NCc2ccc(OC3CCNCC3)cc2)O1 [CBK038948T] | 96.1%
COc1cccc(CS(=O)(=O)c2c(Br)sc3ccnc(N4CCNCC4)c23)c1 [CBK038956C] | 95.1%
CN1CCN(C(=O)c2cccc(NS(=O)(=O)c3cc(Cl)sc3Cl)c2)CC1 [CBK038966] | 96.2%
Cc1noc(C)c1S(=O)(=O)Nc1cccc(C(=O)N2CCN(C)CC2)c1 [CBK038972] | 101%
CCCc1ccc(S(=O)(=O)Nc2cccc(C(=O)Nc3ccc(F)cc3)c2)cc1 [CBK038978] | 97.4%
CCN(CC)C(=O)c1cccc(NS(=O)(=O)c2cccc3cccnc23)c1 [CBK038999] | 66.5%
COC(=O)c1ccsc1NS(=O)(=O)c1ccc(Br)cc1 [CBK039058] | 94.1%
COC(=O)c1ccsc1NS(=O)(=O)c1ccc(NC(C)=O)cc1 [CBK039063] | 87.7%
COC(=O)c1ccsc1NS(=O)(=O)Cc1ccccc1 [CBK039067] | 108%
Cc1ccc(C(=O)N2CCCN(C(=O)CN3CCCC3)C2)cc1 [CBK039081] | 87.2%

SMILES | viability at 28.5 h, 10 µM
Cc1ccc(C(=O)N2CCN(CC(=O)N3CCCC3)CC2)cc1 [CBK039096] | 110%
NC1=NC(=O)C(CC(=O)Nc2ccccc2Cl)S1 (stereo not shown) [CBK039145] | 99.1%
OCCOc1cccnc1OCCN1CCCC1 [CBK039174] | 85.3%
CN1CCCC1CCOc1ncccc1OCCO (stereo not shown) [CBK039176] | 118%
COc1cc([C@@]23CC[C@@H](NC(=O)Nc4cccc(Cl)c4)C[C@@H]2N(C)CC3)cc(OC)c1OC [CBK039212] | 93.7%
COc1ccc2[nH]c3c(c2c1)CCNC31CCCN(CCc2ccc(F)cc2)C1 (stereo not shown) [CBK039246] | 90.9%
Cc1cccc(CCN2CCC3(CC2)NCCc2c3[nH]c3ccc(Br)cc23)c1 [CBK039280] | 83.3%
Cc1ccc2[nH]cc(CCN3CCC4(CC3)NCCc3c4[nH]c4ccc(OCc5ccccc5)cc34)c2c1 [CBK039342] | 91.8%
COc1ccc2[nH]c3c(c2c1)CCNC31CCN(Cc2cc(F)cc(F)c2)C1 (stereo not shown) [CBK039368] | 81.9%
O=C1Cc2c(ccc3ccccc23)C2(CCN(CC3CCCCO3)CC2)N1 (stereo not shown) [CBK039395] | 98.8%
Cc1ccc(C(=O)CN2CCC3(CC2)NCCc2c3[nH]c3ccc(F)cc23)cc1 [CBK039503] | 107%
Cc1cccc2c3c([nH]c12)C1(CCN(CC2CC2)C1)NCC3 (stereo not shown) [CBK039520] | 95.8%
Cc1ccc2[nH]c3c(c2c1)CCNC31CCN(CC2CCCCO2)CC1 (stereo not shown) [CBK039545] | 103%
Cc1ccc(C(=O)CN2CCCC3(C2)NCCc2c3[nH]c3c(C)cccc23)cc1 (stereo not shown) [CBK039546] | 96%
Cc1cccc2c3c([nH]c12)C1(CCCN(CCc2ccc([N+](=O)[O-])cc2)C1)NCC3 (stereo not shown) [CBK039558] | 92.4%
O=CN1CCc2c([nH]c3ccccc23)C12CCCN(Cc1ccc(C(F)(F)F)cc1)C2 (stereo not shown) [CBK039587] | 92.6%
COc1cccc(CN2CCC3(C2)c2[nH]c4c(C)cccc4c2CCN3C(C)=O)c1 (stereo not shown) [CBK039662] | 84.9%
CC(=O)N1CCc2c([nH]c3ccccc23)C12CCCN(CCC#N)C2 (stereo not shown) [CBK039665] | 91.6%
CC(=O)N1CCc2c([nH]c3cc(F)ccc23)C12CCN(CCC#N)CC2 [CBK039692] | 95.7%
CC(=O)N1CCc2c([nH]c3c(C)cccc23)C12CCCN(CCCC#N)C2 (stereo not shown) [CBK039705] | 104%
CC(=O)N1CCc2c([nH]c3ccc(Br)cc23)C12CCN(CCCC#N)CC2 [CBK039724] | 83.2%

SMILES | viability at 28.5 h, 10 µM
Cc1cccc2c3c([nH]c12)C1(CCN(CCCC#N)CC1)NCC3 [CBK039818] | 90.8%
Cc1cccc2c1CC(=O)NC21CCN(Cc2ccccc2)CC1 [CBK039819] | 87%
COc1ccc2c(c1)CC(=O)NC21CCN(CCCCC(C)C)CC1 [CBK039839] | 95.3%
Fc1ccc2c3c([nH]c2c1)C1(CCN(CCCOCc2ccccc2)CC1)NCC3 [CBK039858] | 92.7%
COc1cc2c(cc1OC)C1(CCN(CCCC(F)(F)F)CC1)NC(=O)C2 [CBK039859] | 97.9%
c1ccc(COc2ccc3[nH]c4c(c3c2)CCNC42CCN(Cc3ccccc3-c3ccccc3)C2)cc1 (stereo not shown) [CBK039909] | 73.9%
Cc1cccc2c1CC(=O)NC21CCN(CC(=O)c2ccc(F)cc2)CC1 [CBK039946] | 96%
Cn1c2c(c3ccccc31)CCOC21CCN(Cc2ccc(OC(F)F)cc2)CC1 [CBK039975] | 95.8%
O=C1Cc2cc3ccccc3cc2C2(CCN(CCC(F)=C(F)F)CC2)N1 [CBK040033] | 94.6%
COc1cccc2c3c([nH]c12)C1(CCN(CCc2scnc2C)CC1)NCC3 [CBK040058] | 89%
CC(c1nc2ccccc2[nH]1)N1CCC2(CC1)NCCc1c2[nH]c2ccccc12 (stereo not shown) [CBK040061] | 90.3%
FC(F)(F)c1ccc(CN2CCCC3(C2)NCCc2c3[nH]c3ccccc23)cc1 (stereo not shown) [CBK040095] | 94.2%
COc1ccc2[nH]c3c(c2c1)CCNC31CCN(CCC2CCCCC2)C1 (stereo not shown) [CBK040111T] | 90.7%
COc1ccc2[nH]c3c(c2c1)CCOC31CCN(CCC(F)=C(F)F)CC1 [CBK040118] | 103%
c1csc(CCN2CCC3(CC2)OCCc2c3[nH]c3ccccc23)c1 [CBK040156] | 87.1%
Cc1ccc2c(c1)C1(CCN(C/C=C\c3ccccc3)CC1)NC(=O)C2 [CBK040216] | 94.1%
COCCOCCCN1CCC2(CC1)NC(=O)Cc1ccc(C)cc12 [CBK040222] | 109%
CC(C)(C)C(=O)CN1CCC2(CC1)OCCc1c2[nH]c2ccc(F)cc12 [CBK040237] | 95.8%
COC(=O)c1cccc(CN2CCC3(CC2)OCCc2c3[nH]c3ccc(F)cc23)c1 [CBK040326] | 100%
